We go through 30 compounds from article PMC9032825, “Docking, Binding Free Energy Calculations and In Vitro Characterization of Pyrazine Linked 2-Aminobenzamides as Novel Class I Histone Deacetylase (HDAC) Inhibitors” (Molecules, 2022).

The target of test [1] is T1, human HDAC1 (Homo sapiens, UniProt Q13547). The conditions noted are these: training set, from in vitro IC50; cited from earlier work.
For test [2], the target named is T2, human HDAC3 (Homo sapiens, UniProt O15379). The following applies: training set, from in vitro IC50; cited from earlier work.
T2 sequence (O15379 whole entry): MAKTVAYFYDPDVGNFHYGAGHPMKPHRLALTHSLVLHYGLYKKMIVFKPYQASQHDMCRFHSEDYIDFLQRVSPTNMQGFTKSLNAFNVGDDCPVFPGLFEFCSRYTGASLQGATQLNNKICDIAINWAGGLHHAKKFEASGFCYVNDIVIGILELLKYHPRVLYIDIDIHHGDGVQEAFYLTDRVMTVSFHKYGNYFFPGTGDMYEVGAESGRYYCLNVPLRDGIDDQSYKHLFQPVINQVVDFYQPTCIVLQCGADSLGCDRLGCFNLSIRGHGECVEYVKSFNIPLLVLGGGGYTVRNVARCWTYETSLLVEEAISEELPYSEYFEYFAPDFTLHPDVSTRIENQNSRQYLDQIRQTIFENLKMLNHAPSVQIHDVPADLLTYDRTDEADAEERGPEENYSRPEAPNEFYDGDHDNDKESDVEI
T2 sequence (O75376 395-489 partner limits assumed): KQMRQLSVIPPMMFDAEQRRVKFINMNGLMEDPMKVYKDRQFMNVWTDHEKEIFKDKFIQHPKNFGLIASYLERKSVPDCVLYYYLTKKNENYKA
For test [3], the target named is T3, human HDAC2 (Homo sapiens, UniProt Q92769). The following applies: training set, from in vitro IC50; cited from earlier work.
T3 sequence (Q92769 whole entry): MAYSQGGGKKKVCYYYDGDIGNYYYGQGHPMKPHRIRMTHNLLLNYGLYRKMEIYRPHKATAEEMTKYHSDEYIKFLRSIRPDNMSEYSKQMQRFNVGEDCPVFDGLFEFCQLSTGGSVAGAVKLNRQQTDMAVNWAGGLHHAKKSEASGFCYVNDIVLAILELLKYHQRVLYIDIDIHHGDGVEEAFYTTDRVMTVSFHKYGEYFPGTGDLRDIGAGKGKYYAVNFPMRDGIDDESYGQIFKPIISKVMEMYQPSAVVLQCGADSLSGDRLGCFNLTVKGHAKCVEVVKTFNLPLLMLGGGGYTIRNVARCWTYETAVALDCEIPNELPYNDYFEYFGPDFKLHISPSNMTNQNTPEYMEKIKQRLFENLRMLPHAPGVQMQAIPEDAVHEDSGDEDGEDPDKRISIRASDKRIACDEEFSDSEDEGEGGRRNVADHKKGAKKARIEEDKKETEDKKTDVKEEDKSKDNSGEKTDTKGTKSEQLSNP
Test [4] addresses T3, human HDAC2. The experiment in a line: HDAC2 inhibition, fluorogenic peptide substrate Ac-RHKK(Acetyl)-AMC. It counts as biochemical. The following applies: test set. As to the method: (§1) HDAC1, 2, 3 inhibitory activity for the novel inhibitors was performed as previously reported. To keep the test number small, we applied a two-step screening.
(§2) A fluorogenic peptide derived from p53 (Ac-RHKK(Acetyl)-AMC) was used as substrate. The measurements were performed in an assay buffer (50 mM Hepes, 150 mM NaCl, 5 mM MgCl2, 1 mM TCEP and 0.2 mg/mL BSA, pH 7.4 adjusted with NaOH) at 37 °C. Inhibitors at different concentrations were incubated with 10 nM HDAC1, 3 nM HDAC2 or 3 nM HDAC3 (final concentration) for at least 5 min. The reaction was started with the addition of the fluorogenic substrate (20 µM final concentration) and incubated for 30 min for HDAC2 and HDAC3 and 90 min for HDAC1. The reaction was stopped with a solution of 1 mg/mL trypsin in 1 mM HCl and incubated for 1 h at 37 °C. The fluorescence intensity was recorded with an Envision 2104 Multilabel Plate Reader (PerkinElmer, Waltham, MA) with an excitation wavelength of 380 ± 8 nm and an emission wavelength of 430 ± 8 nm. The received fluorescence intensities were normalized with uninhibited reaction as 100% and the reaction without enzyme as 0%. A nonlinear regression analysis was done to determine the IC50 value.

Test [5] deals with T1, human HDAC1. Briefly: HDAC1 inhibition, fluorogenic peptide substrate Ac-RHKK(Acetyl)-AMC. It counts as biochemical. The following applies: test set. How it is done:
as §1, §2

Test [6] concerns the target T2, human HDAC3. Briefly: HDAC3 inhibition, fluorogenic peptide substrate Ac-RHKK(Acetyl)-AMC. It counts as biochemical. The conditions noted are these: test set. As to the method: as §1, §2

Where two headings read alike, the source gives them in different places.

T1 sequence (Q13547 whole entry): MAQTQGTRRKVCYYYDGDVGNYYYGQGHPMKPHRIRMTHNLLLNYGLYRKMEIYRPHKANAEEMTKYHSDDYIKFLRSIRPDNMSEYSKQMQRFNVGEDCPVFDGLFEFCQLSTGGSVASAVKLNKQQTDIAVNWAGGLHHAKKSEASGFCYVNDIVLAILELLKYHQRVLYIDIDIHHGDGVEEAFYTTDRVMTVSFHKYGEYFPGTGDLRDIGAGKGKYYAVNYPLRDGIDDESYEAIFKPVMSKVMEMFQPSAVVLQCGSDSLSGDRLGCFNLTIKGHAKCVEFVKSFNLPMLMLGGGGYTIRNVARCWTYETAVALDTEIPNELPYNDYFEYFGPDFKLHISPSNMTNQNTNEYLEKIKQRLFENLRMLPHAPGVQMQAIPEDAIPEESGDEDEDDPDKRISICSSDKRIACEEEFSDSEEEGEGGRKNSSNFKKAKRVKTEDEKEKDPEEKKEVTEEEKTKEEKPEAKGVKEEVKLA

Take `Nc1ccccc1NC(=O)c1cnc(N2CCN(CCc3ccccc3)CC2)cn1` [19a]: the HDAC1-pIC50 on human HDAC1 [1] is reported as 6.29. For the same compound, the HDAC3-pIC50 on human HDAC3 [2] was 5.95. Besides, the HDAC2-pIC50 on human HDAC2 [3] was 6.10.

`Nc1ccccc1NC(=O)c1cnc(N2CCN(Cc3ccccn3)CC2)cn1` [19d]: at human HDAC1 [1], the HDAC1-pIC50 is given as 6.28. Besides, the HDAC3-pIC50 at human HDAC3 [2] is reported as 5.97. The HDAC2-pIC50 on human HDAC2 [3] is given as 5.84.

Consider `Nc1ccccc1NC(=O)c1cnc(N2CCN(Cc3csc4ccccc34)CC2)cn1` [19e], for which, on human HDAC1 [1], the HDAC1-pIC50 is 6.68. Moreover, on human HDAC3 [2], the HDAC3-pIC50 is given as 6.08. Besides, the HDAC2-pIC50 at human HDAC2 [3] is given as 6.15.

In the case of `Nc1ccccc1NC(=O)c1cnc(N2CCN(CCc3c[nH]c4ccccc34)CC2)cn1` [19g], the HDAC1-pIC50 on human HDAC1 [1] was 6.51. For the same compound, the HDAC3-pIC50 on human HDAC3 [2] was 6.31. Moreover, the HDAC2-pIC50 at human HDAC2 [3] was 6.02.

For `Nc1cc(F)c(F)cc1NC(=O)c1cnc(N2CCN(CCc3c[nH]c4ccccc34)CC2)cn1` [19h], at human HDAC1 [1], the HDAC1-pIC50 is given as 6.09. The HDAC3-pIC50 on human HDAC3 [2] is given as 6.24. The HDAC2-pIC50 at human HDAC2 [3] was 6.13.

Take `Nc1cc(Cl)ccc1NC(=O)c1cnc(N2CCN(CCc3c[nH]c4ccccc34)CC2)cn1` [19i]: on human HDAC1 [1], the HDAC1-pIC50 is listed as 5.52. Besides, the HDAC3-pIC50 on human HDAC3 [2] is on record as 5.72. Moreover, the HDAC2-pIC50 at human HDAC2 [3] is 5.57.

On to `Cn1cc(CN2CCN(c3ncc(C(=O)Nc4ccccc4N)cn3)CC2)c2ccccc21` [19j], for which the HDAC1-pIC50 on human HDAC1 [1] is 6.35. Moreover, the HDAC3-pIC50 at human HDAC3 [2] was 5.76. In addition, the HDAC2-pIC50 on human HDAC2 [3] is reported as 6.03.

For `Cn1cc(CN2CCN(c3cnc(C(=O)Nc4ccccc4N)cn3)CC2)c2ccccc21` [19k], the HDAC1-pIC50 at human HDAC1 [1] is on record as 6.85. Further, on human HDAC3 [2], the HDAC3-pIC50 is recorded as 6.23. In addition, on human HDAC2 [3], the HDAC2-pIC50 is on record as 6.25.

Regarding `Cn1cc(CN2CCN(c3cnc(C(=O)Nc4cc(F)c(F)cc4N)cn3)CC2)c2ccccc21` [19l], the HDAC1-pIC50 on human HDAC1 [1] is reported as 6.54. The HDAC3-pIC50 on human HDAC3 [2] is 6.09. Besides, the HDAC2-pIC50 at human HDAC2 [3] is reported as 6.25.

With `Cn1cc(CCN2CCN(c3cnc(C(=O)Nc4ccc(F)cc4N)cn3)CC2)c2ccccc21` [19m], the HDAC1-pIC50 on human HDAC1 [1] was 6.40. In addition, the HDAC3-pIC50 on human HDAC3 [2] is 6.40. In addition, the HDAC2-pIC50 on human HDAC2 [3] was 5.83.

In the case of `Cn1cc(CCN2CCN(c3cnc(C(=O)Nc4cc(-c5cccs5)ccc4N)cn3)CC2)c2ccccc21` [21a], the HDAC1-pIC50 on human HDAC1 [1] is on record as 6.59. On human HDAC2 [3], the HDAC2-pIC50 was 5.61.

For the compound `Nc1ccc(-c2ccc(F)cc2)cc1NC(=O)c1cnc(N2CCN(CCc3c[nH]c4ccccc34)CC2)cn1` [21b], the HDAC1-pIC50 at human HDAC1 [1] is reported as 6.15. Further, on human HDAC2 [3], the HDAC2-pIC50 is listed as 6.11.

`Nc1ccc(-c2ccccc2F)cc1NC(=O)c1cnc(N2CCN(CCc3c[nH]c4ccccc34)CC2)cn1` [21c]: on human HDAC1 [1], the HDAC1-pIC50 is on record as 6.12. Further, the HDAC3-pIC50 on human HDAC3 [2] is on record as 4.82. Also, the HDAC2-pIC50 on human HDAC2 [3] is listed as 6.12.

For `Nc1cc(F)ccc1NC(=O)c1cnc(N2CCNCC2)cn1` [23a], the HDAC1-pIC50 at human HDAC1 [1] is listed as 5.48. Besides, on human HDAC3 [2], the HDAC3-pIC50 was 6.40. The HDAC2-pIC50 at human HDAC2 [3] is reported as 5.66.

Consider `Cn1cc(CN2CCN(c3cnc(C(=O)Nc4cc(F)ccc4N)cn3)CC2)c2ccccc21` [23b], for which the HDAC1-pIC50 at human HDAC1 [1] is 6.57. Also, on human HDAC3 [2], the HDAC3-pIC50 is on record as 6.30. Besides, at human HDAC2 [3], the HDAC2-pIC50 is given as 6.30.

Turning to `Cn1cc(CCN2CCN(c3cnc(C(=O)Nc4cc(F)ccc4N)cn3)CC2)c2ccccc21` [23c], the HDAC1-pIC50 at human HDAC1 [1] is given as 6.48. The HDAC3-pIC50 on human HDAC3 [2] was 6.23. Moreover, the HDAC2-pIC50 on human HDAC2 [3] was 5.86.

For the compound `Nc1cc(Cl)ccc1NC(=O)c1cnc(N2CCNCC2)cn1` [25a], the HDAC3-pIC50 at human HDAC3 [2] is on record as 5.06.

As to `Nc1cc(F)c(F)cc1NC(=O)c1cnc(N2CCNCC2)cn1` [25b], the HDAC1-pIC50 on human HDAC1 [1] is given as 5.37. On human HDAC3 [2], the HDAC3-pIC50 is listed as 5.80. Further, the HDAC2-pIC50 at human HDAC2 [3] is on record as 5.38.

Consider `COc1ccc(NC(=O)c2cnc(N3CCNCC3)cn2)c(N)c1` [27c], for which the HDAC1-pIC50 on human HDAC1 [1] is recorded as 4.7. Besides, the HDAC3-pIC50 at human HDAC3 [2] is 4.85. Also, the HDAC2-pIC50 at human HDAC2 [3] is recorded as 4.85.

On to `CN1CCN(c2cnc(C(=O)Nc3cc(-c4ccsc4)ccc3N)cn2)CC1` [29a], for which the HDAC1-pIC50 on human HDAC1 [1] is 6.96. Also, at human HDAC3 [2], the HDAC3-pIC50 is listed as 5.36. The HDAC2-pIC50 on human HDAC2 [3] was 6.74.

On to `Nc1ccc(-c2cccs2)cc1NC(=O)c1cnc(N2CCNCC2)cn1` [29b], for which the HDAC1-pIC50 on human HDAC1 [1] is listed as 7.15. Also, the HDAC3-pIC50 on human HDAC3 [2] is on record as 5.21. Further, at human HDAC2 [3], the HDAC2-pIC50 is 6.59.

`Nc1ccc(-c2ccc(F)cc2)cc1NC(=O)c1cnc(N2CCNCC2)cn1` [29c]: the HDAC1-pIC50 on human HDAC1 [1] was 6.80. Also, the HDAC3-pIC50 at human HDAC3 [2] is listed as 5.17. The HDAC2-pIC50 at human HDAC2 [3] was 6.47.

Take `CN1CCN(c2cnc(C(=O)Nc3cc(-c4ccccc4F)ccc3N)cn2)CC1` [29d]: at human HDAC1 [1], the HDAC1-pIC50 is recorded as 6.74. Further, the HDAC3-pIC50 on human HDAC3 [2] is listed as 4.92. Moreover, on human HDAC2 [3], the HDAC2-pIC50 is 6.59.

In the case of `CN1CCN(c2ncc(C(=O)Nc3cc(-c4cccs4)ccc3N)cn2)CC1` [30a], the IC50 on human HDAC2 [4] was 0.61 ± 0.02 µM; on human HDAC1 [5] (read-out: Experimental HDAC1 pIC50 (converted)) it was 0.324 µM. Also, on human HDAC3 [6] (@1 µM), the inhibition at 1 µM amounted to 8%. The same compound showed an inhibition at 10 µM on human HDAC3 [6] (@10 µM) of 38%.

On to `CN1CCN(c2cnc(C(=O)Nc3cc(-c4cccs4)ccc3N)cn2)CC1` [30b], for which the “Experimental HDAC2 pIC50” value at human HDAC2 [4] came out at 6.10. In addition, the IC50 on human HDAC2 [4] was 0.79 ± 0.02 µM; at human HDAC1 [5] (read-out: HDAC1 IC50), 0.04 ± 0.006 µM. Further, the “Experimental HDAC1 pIC50” value at human HDAC1 [5] was determined as 7.39. Further, the HDAC3 % inhibition on human HDAC3 [6] (@1 µM) is recorded as 6%; at human HDAC3 [6] (@10 µM) it was 35%.

Regarding `CC(=O)N1CCN(c2cnc(C(=O)Nc3cc(-c4cccs4)ccc3N)cn2)CC1` [30c], at human HDAC2 [4], the “Experimental HDAC2 pIC50” value was found to be 5.96. Further, the IC50 against human HDAC2 [4] came out at 1.1 ± 0.1 µM; on human HDAC1 [5] (read-out: HDAC1 IC50), 0.019 ± 0.001 µM. The “Experimental HDAC1 pIC50” value at human HDAC1 [5] is on record as 7.72. Besides, the HDAC3 % inhibition on human HDAC3 [6] (@1 µM) came to 4%; on human HDAC3 [6] (@10 µM), 30%.

On to `CC(=O)N1CCN(c2cnc(C(=O)Nc3ccccc3N)cn2)CC1` [30d], for which the “Experimental HDAC2 pIC50” value on human HDAC2 [4] is given as 4.62. The results for the IC50 at human HDAC2 [4] and on human HDAC1 [5] (read-out: HDAC1 IC50) were 24 ± 2 µM and 1.9 ± 0.1 µM, respectively. The “Experimental HDAC1 pIC50” value on human HDAC1 [5] is given as 5.72. For the same compound, the HDAC3 % inhibition was 15% at human HDAC3 [6] (@1 µM) and 72% on human HDAC3 [6] (@10 µM).

As for `Nc1cc(F)ccc1NC(=O)c1ccc(C(=O)NCc2ccccc2)cc1` [31a], the inhibition at 1 µM at human HDAC2 [4] is 10%; on human HDAC1 [5], 4%; against human HDAC3 [6] (@1 µM) it was 21%. For the same compound, the inhibition at 10 µM on human HDAC2 [4] turned out to be 37%; at human HDAC1 [5], 31%; on human HDAC3 [6] (@10 µM), 65%.

As for `Nc1cc(F)ccc1NC(=O)c1ccc(C(=O)NCc2ccncc2)cc1` [31b], the figures for the inhibition at 1 µM against human HDAC2 [4], at human HDAC1 [5] and against human HDAC3 [6] (@1 µM) were 13%, 0% and 19%, respectively. Moreover, the values for the inhibition at 10 µM on human HDAC2 [4], against human HDAC1 [5] and on human HDAC3 [6] (@10 µM) were 30%, 27% and 59%, respectively.

Turning to `Nc1cc(F)ccc1NC(=O)c1ccc(C(=O)NCc2cccnc2)cc1` [31c], the results for the inhibition at 1 µM on human HDAC2 [4], at human HDAC1 [5] and at human HDAC3 [6] (@1 µM) were 14%, 6% and 25%, respectively. In addition, the inhibition at 10 µM on human HDAC2 [4] is 51%; against human HDAC1 [5], 36%; on human HDAC3 [6] (@10 µM), 66%.

By inhibition is commonly meant the relative decrease from the control value, in per cent.
